Calls of active or inactive are those of the source. No cut-off for these calls is given here.
Assays:
L6 = test: Cytotoxicity against rat L6 cells assessed as decrease in cell viability after 72 hrs by resazurin dye based fluorescence analysis; conditions: for IC50: Rattus norvegicus, L6, 72 h; for Activity: rat, l6, 72 h
Schistosoma mansoni [1] = test: Antischistosomal activity against newly transformed Schistosoma mansoni cercariae assessed as decrease in viability after 72 hrs by microscopic analysis; format: functional, organism-based
[2] = Selectivity index, ratio of IC50 for rat L6 cells to IC50 for adult Schistosoma mansoni
Schistosoma mansoni [3] = test: Antischistosomal activity against adult Schistosoma mansoni assessed as decrease in viability after 72 hrs by microscopic analysis; format: functional, organism-based
Schistosoma mansoni [4] = test: Antischistosomal activity against newly transformed Schistosoma mansoni cercariae assessed as decrease in viability at 12.5 ug/ml after 72 hrs by microscopic analysis; format: functional, organism-based
Schistosoma mansoni [5] = test: Antischistosomal activity against Schistosoma mansoni strain Liberian cercariae infected in NMRI mouse assessed as reduction of worm burden in portal and mesenteric veins and liver at 400 mg/kg, po treated after 49 days of infection measured 16 to 21 days post treatment; format: functional
Schistosoma mansoni [6] = test: Antischistosomal activity against adult Schistosoma mansoni assessed as decrease in viability at 25 ug/ml after 72 hrs by microscopic analysis; format: functional, organism-based

Which IC50 (L6) does the source give for `CC(=O)[C@]1(Cc2ccc([N+](=O)[O-])cc2)CC[C@]2(C)OO[C@@]1(C)O2` here?
Its IC50 is 22.7 µM.

And the IC50 (Schistosoma mansoni [1])?
The IC50 was 5.7 µM.

What about the “Ratio IC50” value [2] of the same molecule?
The value was 1.7.

And the IC50 (Schistosoma mansoni [3])?
The IC50 was 7 µM.

Which IC50 (L6) does the source give for `CC(=O)CCC1(Cc2ccc(C)cc2)[C@]2(C)OO[C@@]1(C)OO2` (some centres undefined) here?
The IC50 was 2.5 µM.

And the IC50 (Schistosoma mansoni [1])?
Its IC50 is 5.2 µM.

What about the “Ratio IC50” value [2] of the same molecule?
Its value is 0.3.

What about the IC50 (Schistosoma mansoni [3]) of the same molecule?
The IC50 was 9.8 µM.

Which Activity (L6) does the source give for `CC(=O)[C@@]1(Cc2ccc(Cl)cc2)CC[C@]2(C)OO[C@@]1(C)O2` here?
Its Activity is “Non-toxic”.

What about the IC50 (Schistosoma mansoni [1]) of the same molecule?
Its IC50 is 3.2 µM.

What about the IC50 (Schistosoma mansoni [3]) of the same molecule?
The IC50 was 11.2 µM.

Which Activity (L6) does the source give for `CCCC[C@]1(C(C)=O)CCC2(C)OOC1(C)O2` (single isomer, unassigned) here?
Its Activity is “Non-toxic”.

And the inhibition (Schistosoma mansoni [4])?
The inhibition was “inactive”.

And the IC50 (Schistosoma mansoni [3])?
Its IC50 is 12.2 µM.

For `CC(C)C[C@@]12OO[C@]3(C)OC(C)(CCC31)O2`, which IC50 (L6) is on record?
Its IC50 is 4.9 µM.

What about the IC50 (Schistosoma mansoni [1]) of the same molecule?
Its IC50 is 2 µM.

What about the “Ratio IC50” value [2] of the same molecule?
Its value is 3.

And the IC50 (Schistosoma mansoni [3])?
The IC50 was 2 µM.

What about the inhibition in vivo at 400 mg/kg (Schistosoma mansoni [5]) of the same molecule?
The inhibition in vivo at 400 mg/kg was 0%.

With `CC[C@]12OO[C@@]3(CC(C)C)OC(C)(CCC31)O2` as the molecule, how does the IC50 (L6) read?
The IC50 was 24.4 µM.

What about the IC50 (Schistosoma mansoni [1]) of the same molecule?
The IC50 was 2.7 µM.

And the “Ratio IC50” value [2]?
The value was 5.7.

What about the IC50 (Schistosoma mansoni [3]) of the same molecule?
Its IC50 is 4.4 µM.

What about the inhibition in vivo at 400 mg/kg (Schistosoma mansoni [5]) of the same molecule?
Its inhibition in vivo at 400 mg/kg is 26.7%.

Which Activity (L6) does the source give for `CC(=O)CCC1(Cc2ccccc2)[C@]2(C)OO[C@@]1(C)OO2` (some centres undefined) here?
The Activity was “Non-toxic”.

What about the IC50 (Schistosoma mansoni [1]) of the same molecule?
The IC50 was 1.6 µM.

What about the IC50 (Schistosoma mansoni [3]) of the same molecule?
The IC50 was 10.9 µM.

What does the source list for `CC(=O)[C@]1(Cc2ccc(C)cc2)CC[C@]2(C)OO[C@@]1(C)O2`?
Activity (L6): Non-toxic; inhibition (Schistosoma mansoni [4]): inactive; IC50 (Schistosoma mansoni [3]): 10 µM

What does the source list for `CC(=O)[C@]1(Cc2ccc(Cl)cc2)CC[C@]2(C)OO[C@@]1(C)O2`?
IC50 (L6): 2.7 µM; IC50 (Schistosoma mansoni [1]): 2.8 µM; Ratio IC50 [2]: 1.3; IC50 (Schistosoma mansoni [3]): 4.2 µM; inhibition in vivo at 400 mg/kg (Schistosoma mansoni [5]): 42.9%

For `CC1[C@]2(C)OO[C@@]1(C13CC4CC(CC(C4)C1)C3)OO2` (some centres undefined), which IC50 (L6) is on record?
Its IC50 is less than 0.4 µM.

What about the IC50 (Schistosoma mansoni [1]) of the same molecule?
The IC50 was 4 µM.

And the “Ratio IC50” value [2]?
Its value is less than 0.1.

What about the IC50 (Schistosoma mansoni [3]) of the same molecule?
The IC50 was 3.9 µM.

For `CC(=O)CCC1(Cc2ccc(Br)cc2)[C@]2(C)OO[C@@]1(C)OO2` (some centres undefined), which IC50 (L6) is on record?
Its IC50 is 2.5 µM.

And the IC50 (Schistosoma mansoni [1])?
Its IC50 is 1.3 µM.

What about the “Ratio IC50” value [2] of the same molecule?
The value was 0.4.

And the IC50 (Schistosoma mansoni [3])?
The IC50 was 8.4 µM.

For `CC(=O)CCC1(Cc2ccc(Cl)cc2)[C@]2(C)OO[C@@]1(C)OO2` (some centres undefined), which Activity (L6) is on record?
The Activity was “Non-toxic”.

What about the IC50 (Schistosoma mansoni [1]) of the same molecule?
Its IC50 is 3.5 µM.

And the IC50 (Schistosoma mansoni [3])?
The IC50 was 15.4 µM.

Which results are given for `CC(=O)[C@]1(Cc2ccc(Br)cc2)CC[C@]2(C)OO[C@@]1(C)O2`?
IC50 (L6): 7.3 µM; IC50 (Schistosoma mansoni [1]): 6.2 µM; Ratio IC50 [2]: 1.1; IC50 (Schistosoma mansoni [3]): 6.6 µM

With `C[Si]1(C)CC[Si](C)(C)OOC2(CCCCCCCCCCC2)OO1` as the molecule, how does the Activity (L6) read?
Its Activity is “Non-toxic”.

And the inhibition (Schistosoma mansoni [6])?
Its inhibition is “inactive”.

And the IC50 (Schistosoma mansoni [1])?
The IC50 was 7.2 µM.

Which IC50 (L6) does the source give for `CC[C@]12C[C@](C34CC5CC(CC(C5)C3)C4)(OO1)OO2` here?
Its IC50 is less than 0.4 µM.

What about the IC50 (Schistosoma mansoni [1]) of the same molecule?
The IC50 was 1.8 µM.

What about the “Ratio IC50” value [2] of the same molecule?
The value was less than 0.2.

And the IC50 (Schistosoma mansoni [3])?
Its IC50 is 2 µM.

For `C[C@]12C[C@](C34CC5CC(CC(C5)C3)C4)(OO1)OO2`, which IC50 (L6) is on record?
The IC50 was less than 0.4 µM.

What about the IC50 (Schistosoma mansoni [1]) of the same molecule?
Its IC50 is 1.3 µM.

And the “Ratio IC50” value [2]?
Its value is less than 0.2.

What about the IC50 (Schistosoma mansoni [3]) of the same molecule?
The IC50 was 2 µM.

For `CC(=O)[C@@]1(Cc2ccc(C)cc2)CC[C@]2(C)OO[C@@]1(C)O2`, which IC50 (L6) is on record?
The IC50 was 15.3 µM.

What about the IC50 (Schistosoma mansoni [1]) of the same molecule?
The IC50 was 12.2 µM.

And the “Ratio IC50” value [2]?
Its value is 7.4.

What about the IC50 (Schistosoma mansoni [3]) of the same molecule?
Its IC50 is 7.4 µM.

What about the inhibition in vivo at 400 mg/kg (Schistosoma mansoni [5]) of the same molecule?
The inhibition in vivo at 400 mg/kg was 9.9%.

Which Activity (L6) does the source give for `CC(=O)[C@@]1(Cc2ccccc2)CC[C@]2(C)OO[C@@]1(C)O2` here?
Its Activity is “Non-toxic”.

What about the IC50 (Schistosoma mansoni [1]) of the same molecule?
The IC50 was 5.6 µM.

What about the IC50 (Schistosoma mansoni [3]) of the same molecule?
The IC50 was 10.3 µM.

Which results are given for `CC(C)(C)C1CCC2(CC1)OO[Si](C)(C)CC[Si](C)(C)OO2`?
Activity (L6): Non-toxic; inhibition (Schistosoma mansoni [6]): inactive; IC50 (Schistosoma mansoni [1]): 4 µM

Which IC50 (L6) does the source give for `CC(=O)[C@]1(Cc2ccccc2)CC[C@]2(C)OO[C@@]1(C)O2` here?
The IC50 was 5.4 µM.

And the IC50 (Schistosoma mansoni [1])?
Its IC50 is 0.4 µM.

And the “Ratio IC50” value [2]?
Its value is 2.9.

What about the IC50 (Schistosoma mansoni [3]) of the same molecule?
Its IC50 is 1.8 µM.

What about the inhibition in vivo at 400 mg/kg (Schistosoma mansoni [5]) of the same molecule?
The inhibition in vivo at 400 mg/kg was 6.2%.

With `CC(=O)[C@@]1(Cc2ccc(Br)cc2)CC[C@]2(C)OO[C@@]1(C)O2` as the molecule, how does the IC50 (L6) read?
Its IC50 is 8.1 µM.

What about the IC50 (Schistosoma mansoni [1]) of the same molecule?
Its IC50 is 2.2 µM.

And the “Ratio IC50” value [2]?
Its value is 1.6.

What about the IC50 (Schistosoma mansoni [3]) of the same molecule?
Its IC50 is 4.2 µM.

What about the inhibition in vivo at 400 mg/kg (Schistosoma mansoni [5]) of the same molecule?
Its inhibition in vivo at 400 mg/kg is 44.3%.

With `CC(C)C[C@]12OO[C@](C)(OO1)C2C12CC3CC(CC(C3)C1)C2` (some centres undefined) as the molecule, how does the IC50 (L6) read?
Its IC50 is 1 µM.

What about the IC50 (Schistosoma mansoni [1]) of the same molecule?
The IC50 was 0.9 µM.

And the “Ratio IC50” value [2]?
The value was 0.5.

And the IC50 (Schistosoma mansoni [3])?
Its IC50 is 1.8 µM.

Which Activity (L6) does the source give for `CC(=O)[C@@]1(Cc2ccc([N+](=O)[O-])cc2)CC[C@]2(C)OO[C@@]1(C)O2` here?
The Activity was “Non-toxic”.

What about the IC50 (Schistosoma mansoni [1]) of the same molecule?
The IC50 was 7.7 µM.

And the IC50 (Schistosoma mansoni [3])?
Its IC50 is 22.8 µM.

From ChEMBL document CHEMBL3596151, “Elucidation of the in vitro and in vivo activities of bridged 1,2,4-trioxolanes, bridged 1,2,4,5-tetraoxanes, tricyclic monoperoxides, silyl peroxides, and hydroxylamine derivatives against Schistosoma mansoni” (Bioorg Med Chem, 2015)
